Experiments:
Type in all cases: cell-based
[1] = system: mCherry-GAL9 expressing HepG2 cells; experiment: GAL9 recruitment assay, HepG2; details: calculated mean from >3 independent exp.
In short: (§1)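 Using cell lines stably carrying mCherry-GAL9, dose-response treatment begins 24 h after seeding; fixed (4% paraformaldehyde) and Hoechst-stained cells are imaged by confocal microscopy and GAL9 structures counted. Each treatment runs in duplicate wells over three experiments.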

[2] = system: HeLa_Luc705 cells (pLuc/705 splice-switching reporter); experiment: Functional 705-SSO delivery, luciferase splice-switching assay; details: for Luciferase expression compared to reference: mean from >3 independent experiments
In short: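 Splice correction was measured as firefly luciferase luminescence in Triton X-100 lysates taken 24 h after enhancer treatment. Before treatment, the 10,000 cells/well had spent 24 h with 1–2 μM 705-SSO (2′-OMe, phosphorothioate). For comparison, 100–200 nM SSO was lipofected with LF2000.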

[3] = system: mCherry-GAL9 expressing HuH7 cells; experiment: GAL9 recruitment assay, HuH7; details: calculated mean from >3 independent exp.
In short: as §1

HeLa cells = experiment: Cellular uptake of AF568-labeled SSO, flow cytometry; details: flow cytometry 0, 2, 4, 6 and 8h after EEE4-treatment
Experimental: Next, we set out to determine the mode of action of EEE4 on endosomal escape. We have previously shown with EEE2 that acidification of endosomes is critical to the activity of the EEE. […] Based on previous findings using EEE2, we hypothesized that simultaneous SSO + EEE4 uptake is needed to induce efficient splice-switching. To evaluate this hypothesis, we performed a parallel experiment using EEE4 dose response with either SSO co-treatment or 24-h SSO pre-incubation step. Luciferase readout was performed at five different time points after EEE4 addition, and splice-switching was observed under both experimental conditions. […] Finally, to ascertain that EEE4 indeed acts by enhancing the endosomal release of ASOs and not merely by increasing cellular uptake, a cellular uptake experiment was performed using AF568-labeled SSO.
Figure S1. Schematic representation of the splice-correction strategy used in pLUC/705 reporter. Luc705 reporters carry a pLuc/705 splice-switching luciferase gene, interrupted by a mutated b-globin intron. […]
Figure S2. […] HeLa ells were either SSO + EEE4 cotreated or 24h-SSO pre-incubated and then EEE4 treated, followed by readout using flow cytometry at 0, 2, 4, 6 and 8h after EEE4-treatment. Significant was calculated, for single variable using Mann-Whitney U test (*P <0.05, **P <0.005 and ***P […]

[4] = system: mCherry-GAL9 expressing HeLa cells; experiment: GAL9 recruitment assay, HeLa; details: calculated mean from >3 independent exp.
In short: as §1

COc1nn(C2CCNCC2)cc1Nc1ncc(F)c(-n2ccc3c(C#N)cccc32)n1 [EEE4]
Gal9 response compared to reference ([1]; EEE 0.31 µM): 0.010 | Gal9 response compared to reference ([1]; EEE 0.62 µM): 0.014 | Gal9 response compared to reference ([1]; EEE 1.25 µM): 0.030 | Gal9 response compared to reference ([1]; EEE 2.5 µM): 0.410 | Gal9 response compared to reference ([1]; EEE 5 µM): 0.444 | Gal9 response compared to reference ([1]; EEE 10 µM): 0.480 | SSO-mediated splice-switching upon co-treatment with bafilomycin A1 ([2]; EEE4 + bafilomycin (0.5 μM) co-incubation): significantly reduced | Luciferase expression compared to reference ([2]; HeLa-Luc705 + 1 µM SSO, EEE 0.5 µM): 3.610 | Luciferase expression compared to reference ([2]; HeLa-Luc705 + 1 µM SSO, EEE 2 µM): 139.083 | Luciferase expression compared to reference ([2]; HeLa-Luc705 + 1 µM SSO, EEE 4 µM): 39.821 | Luciferase expression compared to reference ([2]; HeLa-Luc705 + 1 µM SSO, EEE 5 µM): 13.700 | Luciferase expression compared to reference ([2]; HeLa-Luc705 + 2 µM SSO, EEE 5 µM): 0.020 | Splice-switching with 24-h SSO pre-incubation relative to SSO co-treatment ([2]; dose response, luciferase readout at time points after EEE addition): 20 times | Splice-switching enhancement ([2]; using 2–2.5 μM EEE): above 100 fold | Gal9 response compared to reference ([3]; EEE 0.31 µM): 0.012 | Gal9 response compared to reference ([3]; EEE 0.62 µM): 0.033 | Gal9 response compared to reference ([3]; EEE 1.25 µM): 0.199 | Gal9 response compared to reference ([3]; EEE 2.5 µM): 0.245 | Gal9 response compared to reference ([3]; EEE 5 µM): 0.189 | Gal9 response compared to reference ([3]; EEE 10 µM): 0.045 | Cellular uptake of AF568-labeled SSO in the presence of EEE (HeLa cells): did not observe any enhanced cellular uptake | Gal9 response compared to reference ([4]; EEE 0.31 µM): 0.005 | Gal9 response compared to reference ([4]; EEE 0.62 µM): 0.011 | Gal9 response compared to reference ([4]; EEE 1.25 µM): 0.246 | Gal9 response compared to reference ([4]; EEE 2.5 µM): 0.481 | Gal9 response compared to reference ([4]; EEE 5 µM): 0.168 | Gal9 response compared to reference ([4]; EEE 10 µM): 0.058
